Results taken from publication doi:10.1101/2024.08.19.608619, “Discovery of potent SARS-CoV-2 nsp3 macrodomain inhibitors uncovers lack of translation to cellular antiviral response” (bioRxiv, 2024).

Assays:
in vitro = experiment: in vitro; design: Cytotoxicity in iPSC-derived pneumocytes, CC50; conditions: human, ipsc-derived pneumocytes; ASAP-0008327-001=ASAP-0011176-001; read-out: 50.0
CYP2C19 = CYP2C19 (Homo sapiens, UniProt P33261); experiment: CYP inhibition; format: in vitro ADME; conditions: human; isoform 2C19; In vitro CYP inhibition pooled
CYP2C19, sequence (P33261 whole entry, canonical isoform): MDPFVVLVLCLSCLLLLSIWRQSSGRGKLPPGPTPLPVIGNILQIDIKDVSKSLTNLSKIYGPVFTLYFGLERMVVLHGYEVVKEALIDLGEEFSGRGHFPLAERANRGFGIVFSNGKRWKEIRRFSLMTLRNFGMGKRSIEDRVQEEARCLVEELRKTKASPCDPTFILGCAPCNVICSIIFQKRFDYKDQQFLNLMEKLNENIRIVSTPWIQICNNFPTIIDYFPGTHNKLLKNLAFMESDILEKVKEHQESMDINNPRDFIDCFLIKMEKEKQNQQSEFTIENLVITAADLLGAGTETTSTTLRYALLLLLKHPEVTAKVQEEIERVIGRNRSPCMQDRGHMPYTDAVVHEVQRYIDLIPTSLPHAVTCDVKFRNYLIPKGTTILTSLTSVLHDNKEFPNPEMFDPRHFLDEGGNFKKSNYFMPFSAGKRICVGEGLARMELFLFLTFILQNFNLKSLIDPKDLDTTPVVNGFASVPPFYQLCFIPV
Description: (§1) Supplement media-1.zip/CYP_Inhibition.csv, table | column: ic50; potency

CYP2D6 = CYP2D6 (Homo sapiens, UniProt P10635); experiment: CYP inhibition; format: in vitro ADME; conditions: human; isoform 2D6; In vitro CYP inhibition pooled
CYP2D6, sequence (P10635 whole entry, canonical isoform): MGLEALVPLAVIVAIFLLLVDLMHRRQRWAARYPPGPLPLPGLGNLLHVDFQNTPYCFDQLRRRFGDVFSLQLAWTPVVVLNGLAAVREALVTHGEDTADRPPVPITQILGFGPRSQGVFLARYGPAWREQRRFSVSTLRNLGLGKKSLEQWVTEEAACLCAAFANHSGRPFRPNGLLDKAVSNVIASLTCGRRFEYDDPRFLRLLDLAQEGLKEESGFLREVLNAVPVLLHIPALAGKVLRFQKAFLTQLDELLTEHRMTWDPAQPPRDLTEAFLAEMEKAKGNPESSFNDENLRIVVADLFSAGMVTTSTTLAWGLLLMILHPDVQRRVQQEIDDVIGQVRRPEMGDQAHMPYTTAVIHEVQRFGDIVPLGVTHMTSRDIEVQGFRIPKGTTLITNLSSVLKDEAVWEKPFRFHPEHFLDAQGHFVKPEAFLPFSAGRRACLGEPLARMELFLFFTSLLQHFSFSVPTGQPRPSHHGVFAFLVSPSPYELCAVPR
Description: as §1

CYP1A2 = CYP1A2 (Homo sapiens, UniProt P05177); experiment: CYP inhibition; format: in vitro ADME; conditions: human; isoform 1A2; In vitro CYP inhibition pooled
CYP1A2, sequence (P05177 2-516): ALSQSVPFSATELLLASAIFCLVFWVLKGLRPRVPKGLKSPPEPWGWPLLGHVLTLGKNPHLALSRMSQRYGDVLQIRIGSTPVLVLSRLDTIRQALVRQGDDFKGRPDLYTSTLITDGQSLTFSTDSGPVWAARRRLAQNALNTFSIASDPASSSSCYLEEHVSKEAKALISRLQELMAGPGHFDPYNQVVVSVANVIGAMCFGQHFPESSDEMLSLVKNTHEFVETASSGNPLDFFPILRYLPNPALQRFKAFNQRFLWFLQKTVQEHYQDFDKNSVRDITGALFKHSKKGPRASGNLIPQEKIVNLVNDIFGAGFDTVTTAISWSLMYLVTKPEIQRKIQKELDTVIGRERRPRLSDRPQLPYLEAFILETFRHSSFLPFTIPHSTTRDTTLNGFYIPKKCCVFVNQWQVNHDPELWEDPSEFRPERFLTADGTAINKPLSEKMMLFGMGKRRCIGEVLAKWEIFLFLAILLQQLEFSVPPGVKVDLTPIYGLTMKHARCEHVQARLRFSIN
Description: as §1

CYP3A4 = CYP3A4 (Homo sapiens, UniProt P08684); experiment: CYP inhibition; format: in vitro ADME; conditions: human; isoform 3A4; In vitro CYP inhibition pooled
CYP3A4, sequence (P08684 2-503): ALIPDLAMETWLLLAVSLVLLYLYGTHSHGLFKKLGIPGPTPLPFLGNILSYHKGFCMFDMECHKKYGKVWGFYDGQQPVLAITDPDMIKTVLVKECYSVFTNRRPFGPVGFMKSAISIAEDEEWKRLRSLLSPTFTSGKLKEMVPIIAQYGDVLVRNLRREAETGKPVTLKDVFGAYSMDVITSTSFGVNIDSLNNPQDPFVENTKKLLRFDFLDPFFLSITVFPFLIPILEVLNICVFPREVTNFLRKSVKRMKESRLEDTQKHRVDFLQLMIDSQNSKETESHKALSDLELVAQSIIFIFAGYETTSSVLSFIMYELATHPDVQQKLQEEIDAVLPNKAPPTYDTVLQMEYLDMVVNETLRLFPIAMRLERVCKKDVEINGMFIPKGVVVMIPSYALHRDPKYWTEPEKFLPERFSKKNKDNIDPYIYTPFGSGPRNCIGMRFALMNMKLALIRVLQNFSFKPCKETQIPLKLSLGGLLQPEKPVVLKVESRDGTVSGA
Description: as §1

CYP2C9 = CYP2C9 (Homo sapiens, UniProt P11712); experiment: CYP inhibition; format: in vitro ADME; conditions: human; isoform 2C9; In vitro CYP inhibition pooled
CYP2C9, sequence (P11712 whole entry, canonical isoform): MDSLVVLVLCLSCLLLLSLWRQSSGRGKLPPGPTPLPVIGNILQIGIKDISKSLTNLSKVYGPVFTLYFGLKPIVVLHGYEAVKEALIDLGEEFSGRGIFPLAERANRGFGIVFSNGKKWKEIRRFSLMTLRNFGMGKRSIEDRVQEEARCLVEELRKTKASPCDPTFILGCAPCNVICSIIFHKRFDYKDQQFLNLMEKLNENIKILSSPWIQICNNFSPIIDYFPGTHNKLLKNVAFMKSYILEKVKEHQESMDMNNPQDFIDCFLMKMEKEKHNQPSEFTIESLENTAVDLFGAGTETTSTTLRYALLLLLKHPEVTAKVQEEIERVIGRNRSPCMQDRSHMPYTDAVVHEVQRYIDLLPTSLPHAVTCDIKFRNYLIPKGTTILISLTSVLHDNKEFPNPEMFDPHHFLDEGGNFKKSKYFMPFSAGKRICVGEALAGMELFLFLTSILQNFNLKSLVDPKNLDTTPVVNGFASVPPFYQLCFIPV
Description: as §1

Nsp3-mac1 = Nsp3-mac1 (Severe acute respiratory syndrome coronavirus 2, UniProt P0DTD1); experiment: ADPr hydrolase assay (LC-MS/MS); format: biochemical, SARS-CoV-2; conditions: Nsp3-mac1 200 nM, αNAD+ 8 μM
Description: ADPr hydrolase activity assay was conducted in 96-well plate with pre-dispensed compounds in 8-point dose response starting from 4 μM (control wells were backfilled with DMSO). […] Nsp3-mac1 200 nM in final assay concentration was added to all wells besides “NAD+ alone” well. The plate was centrifuged at 1,500 rpm for 1 min, and then Incubated at room temperature for 15 min. After incubation, αNAD+ in final concentration of 8 μM were added to each well, and the plate was centrifuged again for 1 min. Then, the plate was incubated under shaking at room temperature for 2.45 h, followed by freezing at −80°C until LC-MS/MS analysis.
A 30-μl sample aliquot was mixed with 90 μl of methanol and 1μl of 50 μM 15N5-AMP (an internal standard). The mix was shaken for 10 min, then centrifuged (~21,000 g) for 5 min to precipitate the protein. […]
Mass detection was carried out using electrospray ionization in the positive mode. […] Analytes were detected using multiple reaction monitoring (MRM, m/z) with the following precursor and fragment masses at selected collision energy (eV, indicated in brackets): 560 > 136 (34) and 560 > 348 ([16]) for ADPR, 664 > 524 ([15]) and 664 > 541.7 ([15]) for αNAD+, 353.1 > 97 ([28]) and 353.1 > 141 ([20]) for […] (IS) m/z. […]

MERS-CoV = format: cell-based; conditions: Vero E6/TMPRSS2 MERS-CoV antiviral effect with P-gp inhibitor

Compound `CNCc1cc(-c2cc3c(N[C@@H](c4ccc5c(c4)S(=O)(=O)CCC5)C(C)C)ncnc3[nH]2)co1` [ASAP-0011176] has a CC50 (in vitro) of over 50 µM.

`CC(C)C(Nc1ncnc2[nH]c(C(=O)NC3CCN(C)C3)cc12)c1ccc2c(c1)S(=O)(=O)CCC2` (stereo not drawn) [ASAP-0011198] gave an IC50 (CYP2C19) of over 50 µM, an IC50 (CYP2D6) of over 50 µM and an IC50 (CYP1A2) of over 50 µM. It also gave an IC50 (CYP3A4) of over 50 µM, an IC50 (CYP2C9) of over 50 µM and an IC50 (Nsp3-mac1) of 0.42 µM.

`Cn1ncc(-c2cc3c(N[C@@H](c4ccc5c(n4)OCCO5)C(C)(C)C)ncnc3[nH]2)c1C#N` [ASAP-0011221] showed an EC50 (MERS-CoV) of over 5 µM, an EC90 (MERS-CoV) of over 5 µM and a perc_max_measured (MERS-CoV; maximum measured response) of 128.492%. For the same compound, the perc_min_measured (MERS-CoV; minimum measured response) was 99.797%.

In the case of `Cc1nn(C)cc1-c1cc2c(NC(c3ccc4c(c3)S(=O)(=O)CCC4)C(C)C)ncnc2[nH]1` (stereo not drawn) [ASAP-0011446], the IC50 (Nsp3-mac1) is reported as 0.28 µM.
